In patent US9180214B1, “Gonadotropin-releasing hormone receptor-targeting peptides and their use to treat and diagnose cancer” (STC.UNM, priority 2011, dated 2015):
Positions of bridges follow the written chain, without caps; N, C: chain ends. Non-standard residues stand in square brackets, D forms with d. Residues, ends and D or L forms follow the SMILES beside them. Chains are numbered I, II in the order given. *: point of attachment. DOTA = O=C(O)CN1CCN(CC(=O)O)CCN(CC(=O)*)CCN(CC(=O)O)CC1; pGlu = O=C1CC[C@@H](C(=O)O)N1; Ahx = NCCCCCC(=O)O

Experiments:
[1] = target: T1, human GnRH receptor membrane preparations (Homo sapiens, UniProt P30968); test: In vitro competitive GnRH receptor binding assay with ^125I-[D-Trp^6]-LH-RH
T1 construct: purchased Millipore, Inc (Billerica, Mass.)
T1 sequence (P30968 1-328): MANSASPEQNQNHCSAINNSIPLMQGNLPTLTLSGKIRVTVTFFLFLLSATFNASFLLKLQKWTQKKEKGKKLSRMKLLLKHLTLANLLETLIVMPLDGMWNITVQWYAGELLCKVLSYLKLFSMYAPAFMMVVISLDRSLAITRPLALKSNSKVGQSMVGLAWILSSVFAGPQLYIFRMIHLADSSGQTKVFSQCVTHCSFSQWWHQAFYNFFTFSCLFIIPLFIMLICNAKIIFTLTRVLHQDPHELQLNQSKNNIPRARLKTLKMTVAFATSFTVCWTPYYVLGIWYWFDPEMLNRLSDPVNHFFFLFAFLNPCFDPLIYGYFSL
Protocol: The GnRH receptor binding affinities (IC50 values) of DOTA-Ahx-(D-Lys^6-GnRH1), DOTA-Ahx-(D-Lys^6-GnRH2) and DOTA-Ahx-(L-Lys^6-GnRH3) were determined by in vitro competitive binding assay according to the published procedure^32 with modifications. Briefly, 5 μL of Millipore ChemiScreen™ human GnRH membrane preparations were incubated at 25° C. for 3 h with approximately 30,000 counts per minute (cpm) of ^125I-[D-Trp^6]-LH-RH in the presence of 10^−11 to 10^−5 M of each peptide in 95 μL of binding medium {50 mM N-(2-hydroxyethyl)-piperazine-N′-(2-ethanesulfonic acid), 5 mM MgCl2, 1 mM CaCl2, pH 7.4, 0.2% bovine serum albumin (BSA)}. After the incubation, 800 μL of ice-cold washing buffer (50 mM N-(2-hydroxyethyl)-piperazine-N′-(2-ethanesulfonic acid), 500 mM NaCl, pH 7.4, 0.1% BSA) was added to each mixture. Each resulting mixture was filtered through a GF/C filter (Whatman, Clifton, N.J.) pre-soaked in 1% polyethylenimine. Each filter was rinsed with 1 mL of ice-cold washing buffer for three times. The activities on the filters were measured in a Wallac 1480 automated gamma counter (PerkinElmer, Waltham, Mass.). The IC50 value of each peptide was calculated using Prism software (GraphPad Software, La Jolla, Calif.).

[2] = system: DU145 human prostate cancer-xenografted nude mice; test: Biodistribution in DU145 human prostate cancer-xenografted nude mice; format: in vivo, mouse; details: DU145 xenograft
Protocol: All the animal studies were conducted in compliance with Institutional Animal Care and Use Committee approval. The pharmacokinetics of ^111In-DOTA-Ahx-(D-Lys^6-GnRH1) was determined in DU145 human prostate cancer-xenografted male athymic nude mice (Harlan, Indianapolis, Ind.). The nude mice were subcutaneously inoculated with 1×10^7 DU145 cells on the right flank of each mouse to generate DU145 xenografted tumors. The tumor weights reached approximately 0.3 g at 18 days post cell inoculation. Each tumor-bearing mouse was injected with 0.037 MBq of 111In-DOTA-Ahx-(D-Lys6-GnRH1) via the tail vein. Groups of 5 mice were sacrificed at 0.5, 2, 4 and 24 h post-injection, and tumors and organs of interest were harvested, weighed and counted. Blood values were taken as 6.5% of the whole-body weight. To determine the tumor imaging property of ^111In-DOTA-Ahx-(D-Lys^6-GnRH1), approximately 33.3 MBq of ^111In-DOTA-Ahx-(D-Lys^6-GnRH1) was injected into a DU145 human prostate cancer-xenografted nude mouse (18 days post the cell inoculation) via the tail vein. The mouse was sacrificed for small animal SPECT/CT (Nano-SPECT/CT®, Bioscan) imaging at 0.5 h post-injection. The CT imaging was immediately followed by the whole-body SPECT imaging. The SPECT scans of 24 projections were acquired. Reconstructed SPECT and CT data were visualized and co-registered using InVivoScope (Bioscan, Washington D.C.).

[3] = Urinary metabolites by RP-HPLC in DU145 xenografted nude mouse; format: in vivo; details: 2 h post-injection
Protocol: One hundred microliters of HPLC purified ^111In-DOTA-Ahx-(D-Lys^6-GnRH1) (2.4 MBq) was injected into a DU145 human prostate cancer-xenografted nude mouse through the tail vein. At 2 h post-injection, the mouse was sacrificed and the urine was collected for metabolites analysis. The urine was centrifuged at 16,000 g for 5 min prior to the HPLC analysis. The radioactive metabolites in the urine were analyzed by injecting aliquots of the urine into HPLC. A 20-minute gradient of 15-25% acetonitrile/20 mM HCl was used for the urine analysis.

[4] = In vitro mouse serum stability by RP-HPLC; format: in vitro ADME; details: 37° C., 2 h
Protocol: In vitro serum stability of ^111In-DOTA-Ahx-(D-Lys^6-GnRH1) was determined by incubation in mouse serum at 37° C. for 2 h and monitored for degradation by RP-HPLC. Briefly, 100 μL of HPLC-purified ^111In-DOTA-Ahx-(D-Lys^6-GnRH1) solution (˜3.7 MBq) was added into 100 μL of mouse serum (Sigma-Aldrich Corp, St. Louis, Mo.) and incubated at 37° C. for 2 h. After the incubation, 200 μL of a mixture of ethanol and acetonitrile (V:V=1:1) was added to precipitate the serum. The resulting mixture was centrifuged at 10,000 g for 5 min to collect the supernatant. The supernatant was purged with N2 gas for 30 min to remove the ethanol and acetonitrile. The resulting sample was mixed with 500 μL of water and injected into RP-HPLC for analysis using the gradient described above.

[5] = system: MDA-MB-231 human breast cancer-xenografted nude mice; test: Biodistribution in MDA-MB-231 human breast cancer-xenografted nude mice; format: in vivo, mouse; details: MDA-MB-231 xenograft
Protocol: All the animal studies were conducted in compliance with Institutional Animal Care and Use Committee approval. The pharmacokinetics of ^111In-DOTA-Ahx-(D-Lys^6-GnRH1) was determined in MDA-MB-231 human breast cancer-xenografted female athymic nude mice (Harlan, Indianapolis, Ind.). The nude mice were subcutaneously inoculated with 1×10^7 MDA-MB-231 cells on the right flank of each mouse to generate MDA-MB-231 xenografted tumors. The tumor weights reached approximately 0.3 g at 18 days post cell inoculation. Each tumor-bearing mouse was injected with 0.037 MBq of ^111In-DOTA-Ahx-(D-Lys^6-GnRH1) via the tail vein. Groups of 5 mice were sacrificed at 0.5, 2, 4 and 24 h post-injection, and tumors and organs of interest were harvested, weighed and counted. Blood values were taken as 6.5% of the whole-body weight.

[6] = target: T2, human GnRH receptor (human, UniProt P30968 1-328); test: ratio of IC50 values from the competitive binding assay
T2 construct: whole, on cells; also called gonadotropin-releasing hormone (GnRH) receptor; ChemiScreen Human GnRH receptor membrane preparations
T2 sequence (looked up): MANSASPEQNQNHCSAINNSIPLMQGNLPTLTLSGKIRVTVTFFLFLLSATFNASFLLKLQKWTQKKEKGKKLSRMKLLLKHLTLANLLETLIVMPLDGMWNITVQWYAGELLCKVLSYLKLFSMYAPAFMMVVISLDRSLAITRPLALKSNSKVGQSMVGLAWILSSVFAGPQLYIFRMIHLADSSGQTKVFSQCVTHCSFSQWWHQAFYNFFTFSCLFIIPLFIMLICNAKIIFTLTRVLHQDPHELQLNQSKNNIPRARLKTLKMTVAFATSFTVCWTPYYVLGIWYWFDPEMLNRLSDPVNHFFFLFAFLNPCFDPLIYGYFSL

[7] = target: T2, human GnRH receptor; test: competitive binding against 125I-[D-Trp6]-LH-RH on human GnRH receptor membrane preparations, filter assay
Protocol: The GnRH receptor binding affinities (IC$50$ values) of DOTA-Ahx-(D-Lys^6-GnRH1), DOTA-Ahx-(D-Lys^6-GnRH2) and DOTA-Ahx-(L-Lys^6-GnRH3) were determined by in vitro competitive binding assay according to the published procedure[32] with modifications. […] After the incubation, 800 μL of ice-cold washing buffer (50 mM N-(2-hydroxyethyl)-piperazine-N'-(2-ethanesulfonic acid), 500 mM NaCl, pH 7.4, 0.1% BSA) was added to each mixture. Each resulting mixture was filtered through a GF/C filter (Whatman, Clifton, N.J.) pre-soaked in 1% polyethylenimine. Each filter was rinsed with 1 mL of ice-cold washing buffer for three times. The activities on the filters were measured in a Wallac 1480 automated gamma counter (PerkinElmer, Waltham, Mass.). The IC$50$ value of each peptide was calculated using Prism software (GraphPad Software, La Jolla, Calif.).

Molecule: CC(C)C[C@H](NC(=O)[C@@H](CCCCNC(=O)CCCCCNC(=O)CN1CCN(CC(=O)O)CCN(CC(=O)O)CCN(CC(=O)O)CC1)NC(=O)[C@H](Cc1ccc(O)cc1)NC(=O)[C@H](CO)NC(=O)[C@H](Cc1c[nH]c2ccccc12)NC(=O)[C@H](Cc1c[nH]cn1)NC(=O)[C@@H]1CCC(=O)N1)C(=O)N[C@@H](CCCNC(=N)N)C(=O)N1CCC[C@H]1C(=O)NCC(N)=O [DOTA-Ahx-(D-Lys^6-GnRH1)]
- GnRH receptor binding affinity (in words) [1]: low nanomolar

Molecule: CC(C)C[C@H](NC(=O)[C@@H](CCCCNC(=O)[C@H](Cc1ccc(O)cc1)NC(=O)[C@H](CO)NC(=O)[C@H](Cc1c[nH]c2ccccc12)NC(=O)[C@H](Cc1c[nH]cn1)NC(=O)[C@@H]1CCC(=O)N1)NC(=O)CCCCCNC(=O)CN1CCN(CC(=O)O)CCN(CC(=O)O)CCN(CC(=O)O)CC1)C(=O)N[C@@H](CCCNC(=N)N)C(=O)N1CCC[C@H]1C(=O)NCC(N)=O [DOTA-Ahx-(D-Lys^6-GnRH2)] (I: {DOTA-Ahx}-[dK]LRPG-NH2 / II: [pGlu]HWSY; amide I:1-II:C)
- decrease of GnRH receptor binding affinity versus DOTA-Ahx-(D-Lys^6-GnRH1) [1]: 293 fold

Molecule: CC(C)C[C@H](NC(=O)[C@H](CCCCNC(=O)CCCCCNC(=O)CN1CCN(CC(=O)O)CCN(CC(=O)O)CCN(CC(=O)O)CC1)NC(=O)[C@H](Cc1ccc(O)cc1)NC(=O)[C@H](CO)NC(=O)[C@H](Cc1c[nH]c2ccccc12)NC(=O)[C@H](Cc1c[nH]cn1)NC(=O)[C@@H]1CCC(=O)N1)C(=O)N[C@@H](CCCNC(=N)N)C(=O)N1CCC[C@H]1C(=O)NCC(N)=O [DOTA-Ahx-(L-Lys^6-GnRH3)]
- decrease of GnRH receptor binding affinity versus DOTA-Ahx-(D-Lys^6-GnRH1) [1]: 119 fold

Molecule: CC(C)C[C@H](NC(=O)[C@@H](CCCCNC(=O)CCCCCNC(=O)CN1CCN(CC(=O)O)CCN(CC(=O)O)CCN(CC(=O)O)CC1)NC(=O)[C@H](Cc1ccc(O)cc1)NC(=O)[C@H](CO)NC(=O)[C@H](Cc1c[nH]c2ccccc12)NC(=O)[C@H](Cc1cnc[nH]1)NC(=O)[C@@H]1CCC(=O)N1)C(=O)N[C@@H](CCCNC(=N)N)C(=O)N1CCC[C@H]1C(=O)NCC(N)=O [^111In-DOTA-Ahx-(D-Lys^6-GnRH1), metal not drawn]
- Kidneys, percent injected dose/gram ([2]; 0.5 h post-injection): 10.93±1.53 % ID/g
- Tumor, percent injected dose/gram ([2]; 0.5 h post-injection): 1.27±0.40 % ID/g
- Kidneys, percent injected dose/gram ([2]; 2 h post-injection): 6.41±0.34 % ID/g
- Tumor, percent injected dose/gram ([2]; 2 h post-injection): 0.55±0.23 % ID/g
- Kidneys, percent injected dose/gram ([2]; 4 h post-injection): 7.29±0.90 % ID/g
- Tumor, percent injected dose/gram ([2]; 4 h post-injection): 0.38±0.16 % ID/g
- Kidneys, percent injected dose/gram ([2]; 24 h post-injection): 2.72±0.64 % ID/g
- Tumor, percent injected dose/gram ([2]; 24 h post-injection): 0.31±0.09 % ID/g
- metabolized into two compounds with higher polarity (urine) [3]: 90.2%
- remained intact in urine [3]: 9.8%
- stability in mouse serum [4]: stable
- Kidneys, percent injected dose/gram ([5]; 0.5 h post-injection): 15.39±4.59 % ID/g
- Tumor, percent injected dose/gram ([5]; 0.5 h post-injection): 1.76±0.58 % ID/g
- Blood, percent injected dose/gram ([5]; 2 h post-injection): 0.20±0.03 % ID/g
- Kidneys, percent injected dose/gram ([5]; 2 h post-injection): 8.88±1.26 % ID/g
- Liver, percent injected dose/gram ([5]; 2 h post-injection): 0.77±0.06 % ID/g
- Tumor, percent injected dose/gram ([5]; 2 h post-injection): 0.29±0.10 % ID/g
- Kidneys, percent injected dose/gram ([5]; 4 h post-injection): 9.28±1.18 % ID/g
- Liver, percent injected dose/gram ([5]; 4 h post-injection): 0.97±0.13 % ID/g
- Tumor, percent injected dose/gram ([5]; 4 h post-injection): 0.15±0.05 % ID/g
- Kidneys, percent injected dose/gram ([5]; 24 h post-injection): 4.43±1.67 % ID/g
- Liver, percent injected dose/gram ([5]; 24 h post-injection): 0.59±0.16 % ID/g
- Tumor, percent injected dose/gram ([5]; 24 h post-injection): 0.18±0.07 % ID/g

Molecule: DOTA-Ahx-(D-Lys^6-GnRH2) (peptide)
- fold decrease of GnRH receptor binding affinity against DOTA-Ahx-(D-Lys^6-GnRH1) [6]: 293 fold

B1: DOTA-Ahx-(L-Lys^6-GnRH3) (peptide)
peptide: XHWSYKLRPG
modifications: pGlu at 1; L-Lys at 6 carrying DOTA-Ahx on its epsilon amino group; C-terminal amide
- fold decrease of GnRH receptor binding affinity against DOTA-Ahx-(D-Lys^6-GnRH1) [6]: 119 fold

B2: DOTA-Ahx-(D-Lys^6-GnRH1) (peptide)
peptide: XHWSYKLRPG
modifications: pGlu at 1; D-Lys at 6 carrying DOTA-Ahx (aminohexanoic acid linker) on its epsilon amino group; C-terminal amide (Gly10-NH2)
- IC50 [7]: 36.1 nM
